Results taken from ChEMBL document CHEMBL1152860, “Synthesis and antiproliferative activity of 3-amino-N-phenyl-1H-indazole-1-carboxamides” (2009).

Key:
Type in all cases: functional
DU-145 = experiment: Growth inhibition of human DU145 cells after 48 hrs by SRB assay; settings: DU-145, 48 h
SK-MEL-2 = experiment: Growth inhibition of human SK-MEL-2 cells after 48 hrs by SRB assay; settings: SK-MEL-2, 48 h
UO-31 = experiment: Growth inhibition of human UO31 cells after 48 hrs by SRB assay; settings: UO-31, 48 h
SNB-19 = experiment: Growth inhibition of human SNB19 cells after 48 hrs by SRB assay; settings: SNB-19, 48 h
SF-295 = experiment: Growth inhibition of human SF295 cells after 48 hrs by SRB assay; settings: SF-295, 48 h
TK-10 = experiment: Growth inhibition of human TK10 cells after 48 hrs by SRB assay; settings: TK-10, 48 h
SW-620 = experiment: Growth inhibition of human SW620 cells after 48 hrs by SRB assay; settings: SW-620, 48 h
CAKI-1 = experiment: Growth inhibition of human Caki1 cells after 48 hrs by SRB assay; settings: CAKI-1, 48 h
HCT-116 = experiment: Growth inhibition of human HCT116 cells after 48 hrs by SRB assay; settings: HCT-116, 48 h
NCI-H23 = experiment: Growth inhibition of human NCI-H23 cells after 48 hrs by SRB assay; settings: NCI-H23, 48 h
HCT-15 = experiment: Growth inhibition of human HCT15 cells after 48 hrs by SRB assay; settings: HCT-15, 48 h
SR = experiment: Growth inhibition of human SR cells after 48 hrs by SRB assay
HOP-92 = experiment: Growth inhibition of human HOP92 cells after 48 hrs by SRB assay; settings: HOP-92, 48 h
OVCAR-4 = experiment: Growth inhibition of human OVCAR4 cells after 48 hrs by SRB assay; settings: OVCAR-4, 48 h
A498 = experiment: Growth inhibition of human A498 cells after 48 hrs by SRB assay; settings: A498, 48 h
EKVX = experiment: Growth inhibition of human EKVX cells after 48 hrs by SRB assay
OVCAR-8 = experiment: Growth inhibition of human OVCAR8 cells after 48 hrs by SRB assay; settings: OVCAR-8, 48 h
COLO 205 = experiment: Growth inhibition of human COLO205 cells after 48 hrs by SRB assay; settings: COLO 205, 48 h
OVCAR-5 = experiment: Growth inhibition of human OVCAR5 cells after 48 hrs by SRB assay; settings: OVCAR-5, 48 h
LOX IMVI = experiment: Growth inhibition of human LOXIMVI cells after 48 hrs by SRB assay
NCI-H522 = experiment: Growth inhibition of human NCI-H522 cells after 48 hrs by SRB assay; settings: NCI-H522, 48 h
UACC-62 = experiment: Growth inhibition of human UACC62 cells after 48 hrs by SRB assay; settings: UACC-62, 48 h
BT-549 = experiment: Growth inhibition of human BT549 cells after 48 hrs by SRB assay; settings: BT-549, 48 h
SN12C = experiment: Growth inhibition of human SN12C cells after 48 hrs by SRB assay
HT-29 = experiment: Growth inhibition of human HT-29 cells after 48 hrs by SRB assay; settings: HT-29, 48 h
RPMI-8226 = experiment: Growth inhibition of human RPMI8226 cells after 48 hrs by SRB assay; settings: RPMI-8226, 48 h
RXF 393 = experiment: Growth inhibition of human […] cells after 48 hrs by SRB assay; settings: RXF 393, 48 h
SF-268 = experiment: Growth inhibition of human SF268 cells after 48 hrs by SRB assay; settings: SF-268, 48 h
A549 = experiment: Growth inhibition of human A549 cells after 48 hrs by SRB assay; settings: A549, 48 h
NCI-H322M = experiment: Growth inhibition of human NCI-H322M cells after 48 hrs by SRB assay
ACHN = experiment: Growth inhibition of human ACHN cells after 48 hrs by SRB assay
HCC 2998 = experiment: Growth inhibition of human HCC2998 cells after 48 hrs by SRB assay; settings: HCC 2998, 48 h
MCF7 = experiment: Growth inhibition of human MCF7 cells after 48 hrs by SRB assay; settings: MCF7, 48 h
PC-3 = experiment: Growth inhibition of human PC3 cells after 48 hrs by SRB assay; settings: PC-3, 48 h
T47D = experiment: Growth inhibition of human T47D cells after 48 hrs by SRB assay
OVCAR-3 = experiment: Growth inhibition of human OVCAR-3 cells after 48 hrs by SRB assay; settings: OVCAR-3, 48 h
HOP-62 = experiment: Growth inhibition of human HOP62 cells after 48 hrs by SRB assay; settings: HOP-62, 48 h
MDA-MB-231 = experiment: Growth inhibition of human MDA-MB-231 cells after 48 hrs by SRB assay; settings: MDA-MB-231, 48 h
SK-OV-3 = experiment: Growth inhibition of human SKOV3 cells after 48 hrs by SRB assay; settings: SK-OV-3, 48 h
HL-60(TB) = experiment: Growth inhibition of human HL-60(TB) cells after 48 hrs by SRB assay; settings: HL-60, 48 h
M14 = experiment: Growth inhibition of human M14 cells after 48 hrs by SRB assay; settings: M14, 48 h
K562 = experiment: Growth inhibition of human K562 cells after 48 hrs by SRB assay; settings: K562, 48 h
SK-MEL-5 = experiment: Growth inhibition of human SK-MEL-5 cells after 48 hrs by SRB assay; settings: SK-MEL-5, 48 h
[1] = Growth inhibition of human Hs 578T cells after 48 hrs by SRB assay
KM12 = experiment: Growth inhibition of human KM12 cells after 48 hrs by SRB assay; settings: KM12, 48 h
SF-539 = experiment: Growth inhibition of human SF539 cells after 48 hrs by SRB assay; settings: SF-539, 48 h
NCI-H460 = experiment: Growth inhibition of human NCI-H460 cells after 48 hrs by SRB assay; settings: NCI-H460, 48 h
Malme-3M = experiment: Growth inhibition of human MALME-3M cells after 48 hrs by SRB assay
NCI/ADR-RES = experiment: Growth inhibition of human NCI/ADR-RES cells after 48 hrs by SRB assay
IGROV-1 = experiment: Growth inhibition of human IGROV1 cells after 48 hrs by SRB assay; settings: IGROV-1, 48 h
786-0 = experiment: Growth inhibition of human 786-0 cells after 48 hrs by SRB assay; settings: 786-0, 48 h
UACC-257 = experiment: Growth inhibition of human UACC257 cells after 48 hrs by SRB assay; settings: UACC-257, 48 h
U-251 = experiment: Growth inhibition of human U251 cells after 48 hrs by SRB assay; settings: U-251, 48 h
MDA-MB-435 = experiment: Growth inhibition of human MDA-MB-435 cells after 48 hrs by SRB assay; settings: MDA-MB-435, 48 h
MOLT-4 = experiment: Growth inhibition of human MOLT4 cells after 48 hrs by SRB assay; settings: MOLT-4, 48 h
SNB-75 = experiment: Growth inhibition of human SNB75 cells after 48 hrs by SRB assay; settings: SNB-75, 48 h
CCRF-CEM = experiment: Growth inhibition of human CCRF-CEM cells after 48 hrs by SRB assay
NCI-H226 = experiment: Growth inhibition of human NCI-H226 cells after 48 hrs by SRB assay; settings: NCI-H226, 48 h
SK-MEL-28 = experiment: Growth inhibition of human SK-MEL-28 cells after 48 hrs by SRB assay; settings: SK-MEL-28, 48 h

COc1ccc(NC(=O)n2nc(N)c3ccccc32)cc1OC
GI50 (DU-145): 73.1 µM
GI50 (SK-MEL-2): 37.2 µM
GI50 (UO-31): 28.5 µM
GI50 (SNB-19): > 100 µM
GI50 (SF-295): 37.6 µM
GI50 (TK-10): 92.4 µM
GI50 (SW-620): > 100 µM
GI50 (CAKI-1): > 100 µM
GI50 (HCT-116): 43.5 µM
GI50 (NCI-H23): 83.5 µM
GI50 (HCT-15): 44.1 µM
GI50 (SR): 29.3 µM
GI50 (HOP-92): 24.6 µM
GI50 (OVCAR-4): 63.2 µM
GI50 (A498): 30.3 µM
GI50 (EKVX): 54.1 µM
GI50 (OVCAR-8): 39.7 µM
GI50 (COLO 205): 85.9 µM
GI50 (OVCAR-5): 45.5 µM
GI50 (LOX IMVI): 49.3 µM
GI50 (NCI-H522): 34.9 µM
GI50 (UACC-62): 52.3 µM
GI50 (BT-549): 25.9 µM
GI50 (SN12C): > 100 µM
GI50 (HT-29): 48.2 µM
GI50 (RPMI-8226): 21.1 µM
GI50 (RXF 393): 95.2 µM
GI50 (SF-268): 49.6 µM
GI50 (A549): 45.8 µM
GI50 (NCI-H322M): > 100 µM
GI50 (ACHN): 58.3 µM
GI50 (HCC 2998): 61.1 µM
GI50 (MCF7): 29.5 µM
GI50 (PC-3): 35.5 µM
GI50 (T47D): 33 µM
GI50 (OVCAR-3): 92 µM
GI50 (HOP-62): 75.2 µM
GI50 (MDA-MB-231): 53.6 µM
GI50 (SK-OV-3): > 100 µM
GI50 (HL-60(TB)): 27.9 µM
GI50 (M14): 64.9 µM
GI50 (K562): 41.2 µM
GI50 (SK-MEL-5): 27.9 µM
GI50 [1]: 43.3 µM
GI50 (KM12): 67.9 µM
GI50 (SF-539): 95.9 µM
GI50 (NCI-H460): 34.5 µM
GI50 (Malme-3M): > 100 µM
GI50 (NCI/ADR-RES): 37.6 µM
GI50 (IGROV-1): 18.1 µM
GI50 (786-0): > 100 µM
GI50 (UACC-257): 73.6 µM
GI50 (U-251): 61.7 µM
GI50 (MDA-MB-435): > 100 µM
GI50 (MOLT-4): 39.4 µM
GI50 (SNB-75): 30.6 µM
GI50 (CCRF-CEM): 36.7 µM
GI50 (NCI-H226): 83.1 µM
GI50 (SK-MEL-28): > 100 µM
